We go through four compounds from US6262051A, “Fungicidal methoximinomethyldioxazines” (Bayer Aktiengesellschaft, priority 1997, dated 2001).

In data set [1] the test system is Erysiphe graminis f.sp. hordei. Kind of data set: Example B: Erysiphe test (barley)/curative. It is filed as in vivo. The following applies: curative (sprayed 48 hours after inoculation), 250 g/ha, 7 days after inoculation, vs untreated control. How it is done:
(§1) Erysiphe test (barley)/curative Solvent: 10 parts by weight of N-methyl-pyrrolidone Emulsifier: 0.6 part by weight of alkylaryl polyglycol ether To produce a suitable preparation of active compound, 1 part by weight of active compound is mixed with the stated amount of solvent and emulsifier, and the concentrate is diluted with water to the desired concentration. To test for curative activity, young plants are dusted with spores of Erysiphe graminis f.sp. hordei. 48 hours after the inoculation, the plants are sprayed with the preparation of active compound at the stated application rate. The plants are placed in a greenhouse at a temperature of approximately 20° C. and a relative atmospheric humidity of approximately 80% to promote the development of mildew postures.

The next data set can be described thus: HPLC logP. It is filed as physicochemical. Conditions: Table 1.
Another data set concerns Pyricularia oryzae. It counts as in vivo. Conditions: rice, protective; 750 g/ha; 4 days after inoculation; vs untreated control.
The test system of the next data set is Plasmopara viticola. Kind of data set: Example D: Plasmopara test (grapevine)/protective. It counts as in vivo. Conditions: Plasmopara viticola, 144 h, protective, 6 days after inoculation, vs untreated control, read-out: Efficacy in %. Here is the method:
Plasmopara test (grapevine)/protective Solvent: 47 parts by weight of acetone Emulsifier: 3 parts by weight of alkylaryl polyglycol ether To produce a suitable preparation of active compound, 1 part by weight of active compound is mixed with the stated amount of solvent and emulsifier, and the concentrate is diluted with water to the desired concentration. To test for protective activity, young plants are sprayed with the preparation of active compound at the stated application rate. […]

Data set [2] deals with Erysiphe graminis f.sp. hordei. Nature of the data set: Example A: Erysiphe test (barley)/protective (N-methyl-pyrrolidone). It counts as in vivo. Conditions: protective, 250 g/ha, 7 days after inoculation, vs untreated control. Here is the method:
as §1, with “test (barley)/protective” for “test (barley)/curative”, “0.6 parts” for “0.6 part”, “for protective” for “for curative”, “young” for “young plants are dusted with spores of Erysiphe graminis f.sp. hordei. 48 hours after the inoculation, the”, “rate. After the spray coating has dried on, the plants are dusted with spores of Erysiphe graminis f.sp. hordei.” for “rate.”, “mildew postules.” for “mildew postures.”

In data set [3] the test system is Erysiphe graminis f.sp. hordei. Kind of data set: Example C: Erysiphe test (barley)/protective (N,N-dimethylacetamide). It counts as in vivo. The following applies: protective, solvent N,N-dimethylacetamide, 250 g/ha, 7 days after inoculation, vs untreated control. Here is the method: Erysiphe test (barley)/protective Solvent: 25 parts by weight of N,N-dimethylacetamide Emulsifier: 0.6 part by weight of alkylaryl polyglycol ether To produce a suitable preparation of active compound, 1 part by weight of active compound is mixed with the stated amount of solvent and emulsifier, and the concentrate is diluted with water to the desired concentration. To test for protective activity, young plants are sprayed with the preparation of active compound at the stated application rate. After the spray coating has dried on, the plants are dusted with spores of Erysiphe graminis f.sp. hordei. The plants are placed in a greenhouse at a temperature of approximately 20° C. and a relative atmospheric humidity of approximately 80% to promote the development of mildew postules.

The next data set has as its system Sphaerotheca fuliginea. Kind of data set: Example E: Sphaerotheca test (cucumber)/protective. It counts as in vivo. Conditions: protective, 100 g/ha, 10 days after inoculation, vs untreated control. Here is the method: Sphaerotheca test (cucumber)/protective Solvent: 47 parts by weight of acetone Emulsifier: 3 parts by weight of alkylaryl polyglycol ether To produce a suitable preparation of active compound, 1 part by weight of active compound is mixed with the stated amount of solvent and emulsifier, and the concentrate is diluted with water to the desired concentration. To test for protective activity, young plants are sprayed with the preparation of active compound at the stated application rate. After the spray coating is dried on, the plants are inoculated with an aqueous spore suspension of Sphaerotheca fuliginea.

`CON=C(C1=NOCCO1)c1ccccc1Oc1nccc(OCC(F)(F)F)n1` [Example 3]: the Efficacy in % in data set [1] is on record as 100%; with Pyricularia oryzae, “at least 70%”; in data set [2], 100%. Also, the chromatographic logP in “HPLC logP” was 2.6. The pest or weed control at 100 g/ha in the data set on Plasmopara viticola is at most 100%.
Regarding `CCCCCCOc1ccnc(Oc2ccccc2C(=NOC)C2=NOCCO2)n1` [Example 13], the Efficacy in % in data set [3] was 100%. In addition, the chromatographic logP in the data set “HPLC logP” stood at 3.8. Moreover, in the data set with Plasmopara viticola, the pest or weed control at 100 g/ha was at most 100%.
Turning to `CCCOc1ccnc(Oc2ccccc2C(=NOC)C2=NOCCO2)n1` [Example 6], the Efficacy in % in data set [1] is on record as 100%; in the data set on Sphaerotheca fuliginea, “more than 90%”; in the data set on Pyricularia oryzae, “at least 70%”. The compound further yielded a chromatographic logP in the data set “HPLC logP” of 2.5.
In turn, `CCOc1ccnc(Oc2ccccc2C(=NOC)C2=NOCCO2)n1` [Example 5] showed a chromatographic logP in the data set “HPLC logP” of 2.2. In the data set on Pyricularia oryzae, the Efficacy in % entry was “at least 70%”.

Usually chromatographic logP stands for lipophilicity estimated from chromatographic retention. High values mean higher lipophilicity, low ones lower lipophilicity.
